Assay results published in patent US11771738B2 (Zoetis Services LLC, priority 2018, dated 2023).
Where two headings read alike, the source gives them in different places.

Assays:
Type in all cases: cell-based
[1] = system: third stage larvae of Haemonchus contortus; test: Haemonchus contortus, Larvae Stage 3 (HcL3) In Vitro Assay; conditions: Haemonchus contortus, 96 h
[2] = system: microfilariae of Dirofilaria immitis; test: Dirofilaria immitis, Microfilaria (DiMf) In Vitro Assay; conditions: Dirofilaria immitis, 72 h, read-out: DiMf MED, Minimum Effective Dose, D. immitis microfilariae motility, in vitro
D. immitis L4 larvae = test: Dirofilaria immitis, L4 Stage (DiL4) In Vitro Assay; conditions: for minimal effective concentration: Dirofilaria immitis, 72 h, read-out: DiL4 MED, Minimum Effective Dose, D. immitis L4 larvae motility, in vitro; for DiMf/DiL4: larval stage selectivity, ratio of DiMf MED to DiL4 MED
[3] = read-out: HcL3 MED, Minimum Effective Dose, H. contortus third stage larvae, approximately 96 hours
[4] = read-out: HcL3 MED, Haemonchus contortus third stage larvae in vitro, class mark appended to the Ex # in Table 3
[5] = read-out: HcL3 MED, approximately 96 hours incubation, multiple-resistant field isolate

SMILES	minimal effective concentration [1, 3] [µM]	minimal effective concentration [2] [µM]	minimal effective concentration (D. immitis L4 larvae) [µM]	DiMf/DiL4 (D. immitis L4 larvae)	minimal effective concentration [1, 4] [µM]	minimal effective concentration [1, 5] [µM]
COc1ncc(Cc2ccc(C[C@H]3OC(=O)[C@H](CC(C)C)N(C)C(=O)[C@@H](C)OC(=O)[C@H](CC(C)C)N(C)C(=O)[C@@H](Cc4ccc(Cc5cnc(OC)c(F)c5)cc4)OC(=O)[C@H](CC(C)C)N(C)C(=O)[C@@H](C)OC(=O)[C@H](CC(C)C)N(C)C3=O)cc2)cc1F [Example 3-118, (3S,6R,9S,12R,15S,18R,21S,24R)-6,18-bis(4-((5-fluoro-6-methoxypyridin-3-yl)methyl)benzyl)-3,9,15,21-tetraisobutyl-4,10,12,16,22,24-hexamethyl-1,7,13,19-tetraoxa-4,10,16,22-tetraazacyclotetracosan-2,5,8,11,14,17,20,23-octaone]	> 100	0.1	0.001	100		
Cc1nnsc1Cc1ccc(C[C@H]2OC(=O)[C@H](CC(C)C)N(C)C(=O)[C@@H](C)OC(=O)[C@H](CC(C)C)N(C)C(=O)[C@@H](Cc3ccc(Cc4snnc4C)cc3)OC(=O)[C@H](CC(C)C)N(C)C(=O)[C@@H](C)OC(=O)[C@H](CC(C)C)N(C)C2=O)cc1 [Example 3-120, (3S,6R,9S,12R,15S,18R,21S,24R)-3,9,15,21-tetraisobutyl-4,6,10,16,18,22-hexamethyl-12,24-bis(4-((4-methyl-1,2,3-thiadiazol-5-yl)methyl)benzyl)-1,7,13,19-tetraoxa-4,10,16,22-tetraazacyclotetracosan-2,5,8,11,14,17,20,23-octaone]	1	0.0004	0.0001	4	< 1	≤ 1
COc1ccc(Cc2ccc(C[C@H]3OC(=O)[C@H](CC(C)C)N(C)C(=O)[C@@H](C)OC(=O)[C@H](CC(C)C)N(C)C(=O)[C@@H](Cc4ccc(Cc5ccc(OC)nc5C)cc4)OC(=O)[C@H](CC(C)C)N(C)C(=O)[C@@H](C)OC(=O)[C@H](CC(C)C)N(C)C3=O)cc2)c(C)n1 [Example 3-121, (3S,6R,9S,12R,15S,18R,21S,24R)-3,9,15,21-tetraisobutyl-6,18-bis(4-((6-methoxy-2-methylpyridin-3-yl)methyl)benzyl)-4,10,12,16,22,24-hexamethyl-1,7,13,19-tetraoxa-4,10,16,22-tetraazacyclotetracosan-2,5,8,11,14,17,20,23-octaone]	1.8	0.003	5e-05	60	1 to 3.3	
Cc1csc(Cc2ccc(C[C@H]3OC(=O)[C@H](CC(C)C)N(C)C(=O)[C@@H](C)OC(=O)[C@H](CC(C)C)N(C)C(=O)[C@@H](Cc4ccc(Cc5cc(C)cs5)cc4)OC(=O)[C@H](CC(C)C)N(C)C(=O)[C@@H](C)OC(=O)[C@H](CC(C)C)N(C)C3=O)cc2)c1 [Example 3-124, (3S,6R,9S,12R,15S,18R,21S,24R)-3,9,15,21-tetraisobutyl-4,6,10,16,18,22-hexamethyl-12,24-bis(4-((4-methylthiophen-2-yl)methyl)benzyl)-1,7,13,19-tetraoxa-4,10,16,22-tetraazacyclotetracosan-2,5,8,11,14,17,20,23-octaone]	0.3	0.1	0.001	100	< 1	≤ 1
CC(C)C[C@H]1C(=O)O[C@H](Cc2ccc(Cc3sccc3Br)cc2)C(=O)N(C)[C@@H](CC(C)C)C(=O)O[C@H](C)C(=O)N(C)[C@@H](CC(C)C)C(=O)O[C@H](Cc2ccc(Cc3sccc3Br)cc2)C(=O)N(C)[C@@H](CC(C)C)C(=O)O[C@H](C)C(=O)N1C [Example 3-125, (3S,6R,9S,12R,15S,18R,21S,24R)-6,18-bis(4-((3-bromothiophen-2-yl)methyl)benzyl)-3,9,15,21-tetraisobutyl-4,10,12,16,22,24-hexamethyl-1,7,13,19-tetraoxa-4,10,16,22-tetraazacyclotetracosan-2,5,8,11,14,17,20,23-octaone]	> 100	0.03	< 0.0002	>150		
CC(C)C[C@H]1C(=O)O[C@H](Cc2ccc([C@H](O)c3sccc3Br)cc2)C(=O)N(C)[C@@H](CC(C)C)C(=O)O[C@H](C)C(=O)N(C)[C@@H](CC(C)C)C(=O)O[C@H](Cc2ccc([C@@H](O)c3sccc3Br)cc2)C(=O)N(C)[C@@H](CC(C)C)C(=O)O[C@H](C)C(=O)N1C [Example 3-132, (3S,6R,9S,12R,15S,18R,21S,24R)-6-(4-((R)-(3-bromothiophen-2-yl)(hydroxy)methyl)benzyl)-18-(4-((S)-(3-bromothiophen-2-yl)(hydroxy)methyl)benzyl)-3,9,15,21-tetraisobutyl-4,10,12,16,22,24-hexamethyl-1,7,13,19-tetraoxa-4,10,16,22-tetraazacyclotetracosan-2,5,8,11,14,17,20,23-octaone]	> 10	0.01	0.0004	25		
COc1cc(C)c(Cc2ccc(C[C@H]3OC(=O)[C@H](CC(C)C)N(C)C(=O)[C@@H](C)OC(=O)[C@H](CC(C)C)N(C)C(=O)[C@@H](Cc4ccc(Cc5cnc(OC)cc5C)cc4)OC(=O)[C@H](CC(C)C)N(C)C(=O)[C@@H](C)OC(=O)[C@H](CC(C)C)N(C)C3=O)cc2)cn1 [Example 3-133, (3S,6R,9S,12R,15S,18R,21S,24R)-3,9,15,21-tetraisobutyl-6,18-bis(4-((6-methoxy-4-methylpyridin-3-yl)methyl)benzyl)-4,10,12,16,22,24-hexamethyl-1,7,13,19-tetraoxa-4,10,16,22-tetraazacyclotetracosan-2,5,8,11,14,17,20,23-octaone]	57	0.02	0.0003	66.7		
CC(C)C[C@H]1C(=O)O[C@H](Cc2ccc(Cc3cnco3)cc2)C(=O)N(C)[C@@H](CC(C)C)C(=O)O[C@H](C)C(=O)N(C)[C@@H](CC(C)C)C(=O)O[C@H](Cc2ccc(Cc3cnco3)cc2)C(=O)N(C)[C@@H](CC(C)C)C(=O)O[C@H](C)C(=O)N1C [Example 3-148, (3S,6R,9S,12R,15S,18R,21S,24R)-3,9,15,21-tetraisobutyl-4,6,10,16,18,22-hexamethyl-12,24-bis(4-(oxazol-5-ylmethyl)benzyl)-1,7,13,19-tetraoxa-4,10,16,22-tetraazacyclotetracosan-2,5,8,11,14,17,20,23-octaone]	3	0.001	0.0003	3.3	1 to 3.3	
Cc1ncsc1Cc1ccc(C[C@H]2OC(=O)[C@H](CC(C)C)N(C)C(=O)[C@@H](C)OC(=O)[C@H](CC(C)C)N(C)C(=O)[C@@H](Cc3ccc(Cc4scnc4C)cc3)OC(=O)[C@H](CC(C)C)N(C)C(=O)[C@@H](C)OC(=O)[C@H](CC(C)C)N(C)C2=O)cc1 [Example 3-155, (3S,6R,9S,12R,15S,18R,21S,24R)-3,9,15,21-tetraisobutyl-4,6,10,16,18,22-hexamethyl-12,24-bis(4-((4-methylthiazol-5-yl)methyl)benzyl)-1,7,13,19-tetraoxa-4,10,16,22-tetraazacyclotetracosan-2,5,8,11,14,17,20,23-octaone]	0.5	0.0001	2e-05	5	< 1	≤ 1
CC(C)C[C@H]1C(=O)O[C@H](Cc2ccc(Cc3ccns3)cc2)C(=O)N(C)[C@@H](CC(C)C)C(=O)O[C@H](C)C(=O)N(C)[C@@H](CC(C)C)C(=O)O[C@H](Cc2ccc(Cc3ccns3)cc2)C(=O)N(C)[C@@H](CC(C)C)C(=O)O[C@H](C)C(=O)N1C [Example 3-156, (3S,6R,9S,12R,15S,18R,21S,24R)-3,9,15,21-tetraisobutyl-6,18-bis(4-(isothiazol-5-ylmethyl)benzyl)-4,10,12,16,22,24-hexamethyl-1,7,13,19-tetraoxa-4,10,16,22-tetraazacyclotetracosan-2,5,8,11,14,17,20,23-octaone]	5.6	0.0005	0.0001	5		
Cc1ccc(Cc2ccc(C[C@H]3OC(=O)[C@H](CC(C)C)N(C)C(=O)[C@@H](C)OC(=O)[C@H](CC(C)C)N(C)C(=O)[C@@H](Cc4ccc(Cc5ccc(C)o5)cc4)OC(=O)[C@H](CC(C)C)N(C)C(=O)[C@@H](C)OC(=O)[C@H](CC(C)C)N(C)C3=O)cc2)o1 [Example 3-157, (3S,6R,9S,12R,15S,18R,21S,24R)-3,9,15,21-tetraisobutyl-4,6,10,16,18,22-hexamethyl-12,24-bis(4-((5-methylfuran-2-yl)methyl)benzyl)-1,7,13,19-tetraoxa-4,10,16,22-tetraazacyclotetracosan-2,5,8,11,14,17,20,23-octaone]	> 100	0.1	0.001	100		
CCOc1ncccc1Cc1ccc(C[C@H]2OC(=O)[C@H](CC(C)C)N(C)C(=O)[C@@H](C)OC(=O)[C@H](CC(C)C)N(C)C(=O)[C@@H](Cc3ccc(Cc4cccnc4OCC)cc3)OC(=O)[C@H](CC(C)C)N(C)C(=O)[C@@H](C)OC(=O)[C@H](CC(C)C)N(C)C2=O)cc1 [Example 3-165, (3S,6R,9S,12R,15S,18R,21S,24R)-6,18-bis(4-((2-ethoxypyridin-3-yl)methyl)benzyl)-3,9,15,21-tetraisobutyl-4,10,12,16,22,24-hexamethyl-1,7,13,19-tetraoxa-4,10,16,22-tetraazacyclotetracosan-2,5,8,11,14,17,20,23-octaone]	> 100	0.2	0.001	200		
